Results taken from US20130072527A1, “METHODS OF USING SUSTAINED RELEASE AMINOPYRIDINE COMPOSITIONS” (Acorda Therapeutics, Inc., priority 2008, published 2013).
Read-outs that look alike come from different tables or passages of the source.

Experiments:
[1] = In situ absorption study (stomach, small intestine); type: in vivo
Source text: Absorption. 4-Aminopyridine is rapidly absorbed following oral administration.

[2] = 14C-4-aminopyridine single oral dose in rats (HWI 6379-101); conditions: for tissue-to-blood ratio: rat, oral dose; for AUC / Tmax / t1/2: rats, 1 mg/kg single oral
Description: Studies were performed in rats and dogs using ^14C-labeled 4-aminopyridine (1 mg/kg) given as a single oral gavage dose in solution.
In a single-dose study, rats were administered ^14C-labeled 4-aminopyridine (1 mg/kg) p.o. Three animals per time point were sacrificed 1, 3, 8, and 24 hours post-dose. Blood was collected and tissues were excised for determination of radioactivity.

[3] = Single- and repeated-dose toxicity studies; type: in vivo; conditions: orally administered; most often
Description: Toxicology. In single- and repeated-dose toxicity studies, the dosing regimen greatly affected the rate of mortality and incidence of clinical signs in all species studied (with the possible exception of the mouse). In general, higher mortality rates and greater incidences of adverse clinical signs were noted when 4-aminopyridine was administered in a single large dose as compared to when the same total dose was given as two, three, or four equally divided sub-doses. Toxic responses to orally administered 4-aminopyridine were rapid in onset, most often occurring within the first 2 hours post-dose.
These clinical signs were not unexpected and represent exaggerated pharmacology of 4-aminopyridine.

[4] = system: patients with multiple sclerosis; test: Phase 3 study MS-F204: Timed 25 Foot Walk (Timed Walk Response); type: in vivo, human
[5] = system: patients with multiple sclerosis; test: Phase 3 study MS-F204: leg strength (LEMMT); type: in vivo, human
Source text: (§1) The period of efficacy evaluation (visits 2-6) included 8 weeks of twice daily treatment. An additional week was incorporated to allow pharmacodynamic evaluation at Visit 7, which was not part of the primary endpoint. (See FIG. 1 for study design). In particular, this study is a double-blind, placebo-controlled, parallel group, 13-week study (one week post screening, two weeks of single-blind placebo run-in, eight weeks of double-blind treatment, and two weeks of follow-up) in patients with multiple sclerosis. […] One of the goals of this study is to confirm the primary outcome measure in a second prospective study, and equal randomization is the most efficient way to test this outcome. […] In order to ensure at least 184 patients complete the study, approximately 100 patients were randomized to each group.
Secondary Outcome. The prospectively defined secondary outcome was leg strength, measured by Lower Extremity Manual Muscle Test (LEMMT) in 8 muscle groups, comparing the treated Timed Walk Responders and Timed Walk Non-Responders with placebo-treated patients.
[…] (p-values compared to placebo). […] (Analyzed by t-tests of the least-squares means using the mean square error via an ANOVA model with effects for responder analysis group and center.)

[6] = system: patients with multiple sclerosis; test: Phase 3 study MS-F204: other measures (MSWS-12, SGI, CGI, Ashworth score); type: in vivo, human
Source text: as §1
Other measures. A number of other measures, not powered for statistical comparison, were included for integrated analyses across studies: MSWS-12, SGI, CGI, Ashworth score.
Spasticity may be assessed in addition to walking speed and leg strength. When assessed, spasticity is evaluated at the screening visit and each subsequent visit using the Ashworth Spasticity Score. Preferably, the evaluation is prior to the LEMMT and includes evaluation of six lower extremity muscle groups; knee flexors, knee extensors and hip adductors on both the right and left side of the body. […]

[7] = system: normal adult myelinated axons; conditions: Shi and Blight, 1997, cited from earlier work
[8] = system: chronically injured spinal cord; conditions: (941 ng/mL); Shi et al., 1997; cited from earlier work
[9] = Raoof et al., 1997, cited from earlier work
[10] = Plasma protein binding of fampridine
[11] = Single-dose pharmacokinetics in healthy volunteers; conditions: administered orally
[12] = Rat i.v. and p.o. pharmacokinetics 2 mg/kg (M 2001-03); conditions: for Vdss: single p.o. dose 2 mg/kg; for bioavailability: rat, plasma, oral, 2 mg/kg
[13] = Oral administration of non-sustained release 4-aminopyridine in animals
[14] = 14C-4-aminopyridine single oral dose in dogs (HWI 6379-102); type: in vivo; conditions: for AUC / Tmax / t1/2: dogs, 1 mg/kg single oral
Source text: In both species, 14C 4-aminopyridine was rapidly absorbed.

[15] = one hour post-dose, 1 mg/kg p.o.

Molecule `Nc1ccncc1` [4-aminopyridine] has a half-life ([1]; small intestine) of 0.67 h, a half-life ([1]; stomach) of 1.81 h and an elimination half-life ([2]; blood) of 1.21 h. The elimination half-life ([2]; cerebellum) was 1.24 h, the elimination half-life ([2]; cerebrum) was 1.63 h and the “onset of toxic responses post-dose” value [3] was ≤ 2 h. For the same molecule, the “Timed Walk response rate” value ([4]; 10 mg b.i.d., with concomitant interferons, natalizumab, or glatiramer acetate (n=70)) was 42.9%, the “Timed Walk response rate” value ([4]; 10 mg b.i.d., without concomitant immunomodulators (n=49)) was 42.9% and the “improvement in walking speed from baseline” value ([4]; Timed Walk Responders, throughout the treatment period) was “approximately 25%”. The “proportion of MS patients with consistently improved walking speed (Timed Walk Response)” value ([4]; eight weeks of treatment, 10 mg b.i.d.) was 42%, the “leg strength (LEMMT) versus placebo treated or Timed Walk Responder groups” value ([5]; Fampridine-treated Timed Walk Non-Responders) was “not significantly different” and the “leg strength (LEMMT) versus placebo-treated patients” value ([5]; Timed Walk Responders, p=0.028) was “significantly improved”. The “MSWS-12 score, SGI, and CGI” value ([6]; among Timed Walk Responders but not Timed Walk Non-Responders) was “improvement”, the “Ashworth Score compared to the placebo treated group” value ([6]; significant in an unplanned analysis) was “improvement” and the “concentration below which the action potential shows little or no sensitivity” value ([7]; (9.4 μg/mL)) was “below 100 μM”. The “concentration causing gradual depolarization of the axon resting potential” value ([7]; (94.1 μg/mL)) was “above 1 mM”, the most effective concentration [8] was “about 10 μM” and the “regional apparent permeability coefficient (papp×10^−6, cm/sec)” value ([9]; large intestine) was 2.9 ×10^−6 cm/sec. The “regional apparent permeability coefficient (papp×10^−6, cm/sec)” value ([9]; upper small intestine) was 22.7 ×10^−6 cm/sec, the fraction unbound [10] was 0.97 to 0.99 and the “absorption from the gastrointestinal tract” value [11] was “completely absorbed”. The Vdss ([12]; female rats) was 947.5 mL, the bioavailability ([12]; female) was ~55% and the Vdss ([12]; male rats) was 1094.4 mL. The bioavailability ([12]; male) was ~66.5%, the “Vdss difference between males and females adjusted for body weight” value ([12]; rats, 2 mg/kg p.o.) was 2% and the “Vdss lower in females than in males” value ([12]; rats, 2 mg/kg p.o., not statistically significant) was 13%. For the same molecule, the “peak plasma concentrations lower in females than in males” value ([12]; rats, oral administration) was 38% and the “time of peak plasma concentrations after dosing” value [13] was ≤ 1 h.

With ^14C-4-Aminopyridine the “radioactive dose in the carcass” value ([2]; 3 hours post-dose, 1 mg/kg p.o.) was 15.4%, the tissue-to-blood ratio ([2]; cerebellum) was 1.48 and the tissue-to-blood ratio ([2]; cerebrum) was 3.07. For the same molecule, the “dose accounted for in total (radioactivity)” value [2, 15] was 58.3%, the “radioactivity in blood, % of dose” value [2, 15] was 0.7% and the “radioactivity in kidney, % of dose” value [2, 15] was 1.6%. For the same molecule, the “radioactivity in liver, % of dose” value [2, 15] was 2.6%, the “radioactivity in the carcass” value [2, 15] was 51% and the AUC ([2]; females) was 506 ± 63.3 ng·h/mL. The Tmax ([2]; females) was 0.5 h, the t1/2 ([2]; females) was 1.4 ± 0.17 h and the AUC ([2]; males) was 498 ± 17.6 ng·h/mL. It also gave a Tmax ([2]; males) of 1.0 h, a t1/2 ([2]; males) of 1.1 ± 0.04 h and an AUC ([14]; females) of 1920 ± 150 ng·h/mL. It also gave a Tmax ([14]; females) of 0.8 ± 0.3 h, a t1/2 ([14]; females) of 1.8 ± 0.04 h and an AUC ([14]; males) of 2030 ± 406 ng·h/mL. For the same molecule, the Tmax ([14]; males) was 1.0 ± 0 h, the t1/2 ([14]; males) was 2.1 ± 0.14 h and the “Cmax and AUC in the dog relative to the rat” value ([14]; doses equal on a mg/kg basis (1 mg/kg oral)) was “approximately four-fold higher”.
